Measurements as given in patent publication US20230303549A1, “SUBSTITUTED HETEROARYLOXYPYRIDINES, THE SALTS THEREOF AND THEIR USE AS HERBICIDAL AGENTS” (Bayer Aktiengesellschaft, priority 2020, published 2023).

Experiments:
Assay type in all cases: in vivo
[1] = tested on: Abutilon theophrasti (ABUTH); assay: Pre-emergence herbicide efficacy at 320 g/ha, greenhouse pot test; settings: visual scoring vs untreated control after about 3 weeks
Source text: (§1) Seeds of mono- and dicotyledonous weed plants were placed in plastic pots in sandy loam soil (doubly sown with in each case one species of mono- or dicotyledonous weed plants per pot) and covered with soil. The compounds of the invention, formulated in the form of wettable powders (WP) or as emulsion concentrates (EC), were then applied onto the surface of the covering soil as aqueous suspension or emulsion with addition of 0.5% additive at a water application rate of 600 liters per hectare (converted). After the treatment, the pots were placed in a greenhouse and kept under good growth conditions for the test plants. After about 3 weeks, the effect of the preparations was scored visually in comparison with untreated controls as percentages. For example, 100% activity=the plants have died, 0% activity=like control plants. Tables C1 to C12 below show the effects of selected compounds of the general formula (I) according to Table 1 on various harmful plants and an application rate corresponding to 320 g/ha, which were obtained by the experimental procedure mentioned above.

[2] = tested on: Amaranthus retroflexus (AMARE); assay: as above; settings: visual scoring vs untreated control after about 3 weeks
Source text: as §1

[3] = tested on: Poa annua (POAAN); assay: as above; settings: visual scoring vs untreated control after about 3 weeks
Source text: as §1

[4] = tested on: Stellaria media (STEME); assay: as above; settings: visual scoring vs untreated control after about 3 weeks
Source text: as §1

[5] = tested on: Amaranthus retroflexus (AMARE); assay: Post-emergence herbicidal efficacy at 320 g/ha, greenhouse pot test; settings: visual rating vs untreated control after about 3 weeks
Protocol: (§2) Seeds of mono- and dicotyledonous weed plants were placed in plastic pots in sandy loam soil (doubly sown with in each case one species of mono- or dicotyledonous weed plants per pot), covered with soil and cultivated in a greenhouse under controlled growth conditions. 2 to 3 weeks after sowing, the test plants were treated at the one-leaf stage. The compounds of the invention, formulated in the form of wettable powders (WP) or as emulsion concentrates (EC), were applied onto the green parts of the plants as aqueous suspension or emulsion with addition of 0.5% additive at a water application rate of 600 liters per hectare (converted). After the test plants had been kept in the greenhouse under optimum growth conditions for about 3 weeks, the activity of the preparations was rated visually in comparison to untreated controls. For example, 100% activity=the plants have died, 0% activity=like control plants. Tables […] 11 below show the effects of selected compounds of the general formula (I) according to Table 1 on various harmful plants and an application rate corresponding to 320 g/ha, which were obtained by the experimental procedure mentioned above.

[6] = tested on: Bassia scoparia (KCHSC); assay: Pre-emergence herbicide efficacy at 320 g/ha, greenhouse pot test; settings: dosage 1280 g/ha in Table C6, visual scoring after about 3 weeks
Source text: as §1

[7] = tested on: Matricaria inodora (MATIN); assay: as above; settings: visual scoring vs untreated control after about 3 weeks
Source text: as §1

[8] = tested on: Veronica persica (VERPE); assay: Post-emergence herbicidal efficacy at 320 g/ha, greenhouse pot test; settings: 320 g/ha, visual rating vs untreated control after about 3 weeks
Protocol: as §2

[9] = tested on: Poa annua (POAAN); assay: as above; settings: visual rating vs untreated control after about 3 weeks
Protocol: as §2

[10] = tested on: Stellaria media (STEME); assay: as above; settings: visual rating vs untreated control after about 3 weeks
Protocol: as §2

[11] = tested on: Echinochloa crus-galli (ECHCG); assay: Pre-emergence herbicide efficacy at 320 g/ha, greenhouse pot test; settings: visual scoring vs untreated control after about 3 weeks
Source text: as §1

[12] = tested on: Abutilon theophrasti (ABUTH); assay: Post-emergence herbicidal efficacy at 320 g/ha, greenhouse pot test; settings: visual rating vs untreated control after about 3 weeks
Protocol: as §2

[13] = tested on: Veronica persica (VERPE); assay: Pre-emergence herbicide efficacy at 320 g/ha, greenhouse pot test; settings: visual scoring vs untreated control after about 3 weeks
Source text: as §1

[14] = tested on: Setaria viridis (SETVI); assay: as above; settings: visual scoring vs untreated control after about 3 weeks
Source text: as §1

Structure (SMILES)	Pre-emergence efficacy against Abutilon theophrasti (ABUTH) [1] [%]	Pre-emergence efficacy against Amaranthus retroflexus (AMARE) [2] [%]	Pre-emergence efficacy against Poa annua (POAAN) [3] [%]	Pre-emergence efficacy against Stellaria media (STEME) [4] [%]	Post-emergence efficacy against Amaranthus retroflexus (AMARE) [5] [%]	Pre-emergence efficacy against Bassia scoparia (KCHSC) [6] [%]	Pre-emergence efficacy against Matricaria inodora (MATIN) [7] [%]	Post-emergence efficacy against Veronica persica (VERPE) [8] [%]	Post-emergence efficacy against Poa annua (POAAN) [9] [%]	Post-emergence action against Stellaria media (STEME) [10] [%]	Pre-emergence efficacy against Echinochloa crus-galli (ECHCG) [11] [%]	Post-emergence efficacy against Abutilon theophrasti (ABUTH) [12] [%]	Pre-emergence efficacy against Veronica persica (VERPE) [13] [%]	Pre-emergence efficacy against Setaria viridis (SETVI) [14] [%]
Cc1ccc(-c2cc(C(F)F)on2)c(Oc2ncc(Cl)cn2)n1 [Example I-12]	90	100	100	90	–	–	–	–	–	–	–	–	–	–
Cc1ccc(-c2cc(C(F)F)on2)c(Oc2ncc(F)cn2)n1 [Example I-13]	–	–	–	–	90	–	–	–	–	–	–	–	–	–
Cc1cc(C)c(-c2cc(C(F)F)no2)c(Oc2ncc(C#N)cn2)n1 [Example I-46]	90	90	–	90	100	90	100	100	90	100	–	–	–	–
Cc1cc(C)c(-c2cc(C3CC3)no2)c(Oc2ncc(Cl)cc2F)n1 [Example I-180]	–	100	100	100	–	–	100	90	–	100	–	–	–	–
Cc1cc(C)c(-c2cc(CC3CC3)no2)c(Oc2ncc(F)cn2)n1 [Example I-200]	90	100	90	100	90	–	90	90	–	90	90	–	–	–
Cc1cc(C)c(-c2cc(CC3CC3)no2)c(Oc2ncc(Cl)cn2)n1 [Example I-201]	90	90	100	90	–	90	–	90	–	90	–	90	–	–
Cc1cc(C)c(-c2cc(CC3CC3)no2)c(Oc2ncc(Cl)cc2F)n1 [Example I-202]	–	90	–	100	–	–	–	–	100	90	–	–	–	–
Cc1cc(C)c(-n2cccn2)c(Oc2ncc(F)cn2)n1 [Example I-244]	–	–	–	–	–	90	–	–	–	–	–	–	90	–
Cc1cc(C)c(-n2cccn2)c(Oc2ncc(Cl)cn2)n1 [Example I-245]	90	100	–	100	–	100	90	–	–	–	–	–	–	–
Cc1cc(C)c(-n2cc(Br)cn2)c(Oc2ncc(Cl)cn2)n1 [Example I-278]	100	–	–	100	100	100	–	90	–	90	100	–	100	–
Cc1cc(C)c(-c2cc(C(F)F)no2)c(Oc2ncc(Cl)cc2Cl)n1 [Example I-288]	–	–	90	90	100	90	–	90	90	90	–	–	–	–
Cc1cc(C)c(-c2cc(C(F)F)no2)c(Oc2ncc(F)cc2C#N)n1 [Example I-289]	–	–	–	90	100	90	–	90	90	90	–	–	–	–
Cc1cc(C)c(-c2cc(C(F)F)no2)c(Oc2ncc(Cl)cc2C#N)n1 [Example I-290]	–	–	–	–	100	–	–	90	–	–	–	–	–	–
Cc1cc(C)c(-c2cc(C(F)F)no2)c(Oc2ncc(Br)cc2C#N)n1 [Example I-291]	–	–	–	–	90	90	–	90	–	–	–	–	–	–
Cc1cc(C)c(-c2cc(C3CC3)no2)c(Oc2ncc(Br)cn2)n1 [Example I-296]	100	100	100	100	90	100	100	100	90	100	90	–	90	100
Cc1cc(C)c(-c2cc(C3(C)CC3)no2)c(Oc2ncc(Cl)cn2)n1 [Example I-297]	90	90	–	100	–	–	100	90	–	–	–	–	–	–
Cc1cc(C)c(-c2cc(C3(C)CC3)no2)c(Oc2ncc(Br)cn2)n1 [Example I-298]	–	90	–	100	–	–	90	90	–	90	–	90	–	–
Cc1cc(C)c(-c2cc(C3(C)CC3)no2)c(Oc2ncc(F)cn2)n1 [Example I-299]	90	100	90	100	–	–	–	90	–	90	90	90	–	90
Cc1cc(C)c(-c2cc(CC3CC3)no2)c(Oc2ncc(Br)cn2)n1 [Example I-300]	–	–	–	90	–	–	–	–	–	90	–	–	–	–
Cc1cc(C)c(-c2cc(C3(C)CC3)no2)c(Oc2ncc(Cl)cc2F)n1 [Example I-301]	–	–	–	–	–	–	–	90	–	90	–	–	–	–
